In patent US8895733B2 (Novartis AG, priority 2010, dated 2014):
Like-named read-outs stand apart in the source and are kept apart here.

Target: T1, Nav 1.7 (Homo sapiens, UniProt Q15858)
T1 construct: expressed in transfected cells
Assay: Whole-cell voltage clamp electrophysiology, automated patch clamp (marker c in Table of Examples)
Format: cell-based
Conditions: read-out: Nav 1.7 activity
Description: a.IonWork Quattro data, b=Manual patch clamp data, c=Automated patch clamp data M=Method
Whole-Cell Voltage Clamp Electrophysiology Assay
Patch-clamp electrophysiology is considered the gold standard technique for investigation of ion channel function and pharmacology. Using this method, sodium channel currents can be measured in cells, which stably (or transiently) express the sodium channel subtype of interest. Application of compounds during such experiments provides a functional measure of the activity and potency of compounds affecting the ion channel of interest.
Electrophysiological studies can be performed using automated or manual patch-clamp techniques. Automated patch-clamp instruments suitable for this work include the Ion Works HT (MDS), Ion Works Quattro (MDS), PatchLiner (Nanion technologies), Port-A-Patch (Nanion technologies), QPatch (Sophion) or any other suitable platform.
For recording in automated patch-clamp instruments, cells expressing the voltage-gated sodium channel subtype of interest are dispensed in appropriate chips (plates with more than one recording chambers each containing one or more apertures to generate whole-cell patches), as provided by the manufacturer. Typically, the whole-cell perforated patch configuration is used for probing the pharmacology of compounds in automated patch-clamp electrophysiology on sodium channels. Extracellular and intracellular buffers for such experiments are composed according to the literature, or according to the instructions provided by the manufacturer of the instruments. Test solutions, which contain the compounds to be tested, are applied to the cells expressing the sodium channel of interest by a pipetting system, typically integrated into the robots.
A suitable voltage stimulus protocol is used to activate voltage-gated sodium channel proteins of interest. A typical stimulus protocol may consist of sweeps of sequential voltage pulses starting from a holding potential (i.e. −65 mV), to a more positive and depolarising test pulse potential (i.e. −10 mV) and finally to a more negative and hyperpolarising potential (i.e. −100 mV). According to the biophysics of the voltage-gated ion channel of interest and interest in channel configuration the voltages and durations of the pulses as well as the overall frequency of sweeps applied might vary. Accordingly, a stimulus protocol was designed to assess compounds due to their potential to block NaV1.7 channels primarily in inactivated state. Selectivity over other voltage-gated sodium channel members was assessed by protocols that reflect the native function of the channels (i.e. heart rate or firing of neurons).

[1] = marker c: Automated patch clamp data

T1 sequence (Q15858 whole entry): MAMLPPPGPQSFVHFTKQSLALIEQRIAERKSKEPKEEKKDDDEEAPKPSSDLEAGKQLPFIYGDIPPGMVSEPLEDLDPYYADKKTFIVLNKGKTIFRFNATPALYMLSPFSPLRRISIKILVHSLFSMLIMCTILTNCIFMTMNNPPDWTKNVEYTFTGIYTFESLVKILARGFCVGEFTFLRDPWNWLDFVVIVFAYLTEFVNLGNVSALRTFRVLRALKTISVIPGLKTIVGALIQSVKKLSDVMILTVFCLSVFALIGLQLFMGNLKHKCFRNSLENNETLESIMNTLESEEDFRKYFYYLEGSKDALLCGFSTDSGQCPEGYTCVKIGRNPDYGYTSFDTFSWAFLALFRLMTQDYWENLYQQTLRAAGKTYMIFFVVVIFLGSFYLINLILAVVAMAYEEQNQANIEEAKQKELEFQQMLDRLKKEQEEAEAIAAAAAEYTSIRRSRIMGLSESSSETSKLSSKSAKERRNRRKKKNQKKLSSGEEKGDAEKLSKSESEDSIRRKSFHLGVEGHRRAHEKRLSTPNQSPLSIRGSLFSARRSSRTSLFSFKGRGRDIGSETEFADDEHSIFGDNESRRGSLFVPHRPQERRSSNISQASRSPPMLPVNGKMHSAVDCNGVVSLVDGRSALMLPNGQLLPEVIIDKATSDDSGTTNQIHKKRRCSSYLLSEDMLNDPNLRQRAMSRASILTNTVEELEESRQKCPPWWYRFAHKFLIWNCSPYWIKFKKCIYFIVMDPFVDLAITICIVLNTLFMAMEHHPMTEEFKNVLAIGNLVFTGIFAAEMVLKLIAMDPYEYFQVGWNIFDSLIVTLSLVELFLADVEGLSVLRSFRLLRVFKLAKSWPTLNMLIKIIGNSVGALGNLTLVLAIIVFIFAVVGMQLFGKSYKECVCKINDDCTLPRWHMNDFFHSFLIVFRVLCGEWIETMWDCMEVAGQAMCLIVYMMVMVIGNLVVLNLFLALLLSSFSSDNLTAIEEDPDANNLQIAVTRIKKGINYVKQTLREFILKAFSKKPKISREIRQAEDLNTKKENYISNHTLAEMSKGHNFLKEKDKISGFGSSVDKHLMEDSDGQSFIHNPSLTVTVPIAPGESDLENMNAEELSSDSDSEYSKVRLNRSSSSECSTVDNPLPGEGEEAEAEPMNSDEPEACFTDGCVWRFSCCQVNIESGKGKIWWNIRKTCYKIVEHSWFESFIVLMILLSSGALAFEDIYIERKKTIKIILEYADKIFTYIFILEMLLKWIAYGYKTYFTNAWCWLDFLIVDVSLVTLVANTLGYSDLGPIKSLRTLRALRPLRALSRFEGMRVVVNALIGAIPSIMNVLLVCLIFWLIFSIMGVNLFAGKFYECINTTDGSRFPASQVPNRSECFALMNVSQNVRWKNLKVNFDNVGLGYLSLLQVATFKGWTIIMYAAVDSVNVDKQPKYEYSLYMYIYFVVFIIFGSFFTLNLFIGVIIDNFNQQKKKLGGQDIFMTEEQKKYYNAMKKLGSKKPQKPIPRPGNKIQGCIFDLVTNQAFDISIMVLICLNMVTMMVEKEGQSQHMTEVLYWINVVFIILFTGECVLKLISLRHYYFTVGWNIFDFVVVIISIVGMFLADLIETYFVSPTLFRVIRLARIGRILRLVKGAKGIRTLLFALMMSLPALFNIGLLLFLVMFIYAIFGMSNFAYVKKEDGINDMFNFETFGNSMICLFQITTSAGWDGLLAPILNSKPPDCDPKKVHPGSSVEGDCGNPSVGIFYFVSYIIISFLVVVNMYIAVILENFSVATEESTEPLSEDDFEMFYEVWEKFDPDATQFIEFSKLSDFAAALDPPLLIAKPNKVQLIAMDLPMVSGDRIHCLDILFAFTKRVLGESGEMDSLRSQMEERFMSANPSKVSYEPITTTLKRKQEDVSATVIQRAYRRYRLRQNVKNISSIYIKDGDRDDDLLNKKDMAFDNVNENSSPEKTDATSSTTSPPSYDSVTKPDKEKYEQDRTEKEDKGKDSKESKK

Row | SMILES | IC50 [1] [nM] | IC50 (no platform marker printed in the cell) [nM]
1 | CN(c1ccccc1)c1nc(N)nc(-c2noc(-c3ccc(C#N)nc3)n2)n1 [Example 78, 5-{3-[4-Amino-6-(methyl-phenyl-amino)-[1,3,5]triazin-2-yl]-[1,2,4]oxadiazol-5-yl}-pyridine-2-carbonitrile] | 1660 | 
2 | CN(c1ccccc1)c1nc(N)nc(-c2noc(-c3ccc(C(=O)N4CCOCC4)s3)n2)n1 [Example 79, (5-{3-[4-Amino-6-(methyl-phenyl-amino)-[1,3,5]triazin-2-yl]-[1,2,4]oxadiazol-5-yl}-thiophen-2-yl)-morpholin-4-yl-methanone] | 977 | 
3 | CN(c1ccccc1)c1nc(N)nc(-c2noc(-c3ccccc3C#N)n2)n1 [Example 80, 2-{3-[4-Amino-6-(methyl-phenyl-amino)-[1,3,5]triazin-2-yl]-[1,2,4]oxadiazol-5-yl}-benzonitrile] | 260 | 
4 | COc1cccc(-c2nc(-c3nc(N)nc(N(C)c4cccc(Cl)c4)n3)no2)c1 [Example 83, N-(3-Chloro-phenyl)-6-[5-(3-methoxy-phenyl)-[1,2,4]oxadiazol-3-yl]-N-methyl-[1,3,5]triazine-2,4-diamine] | 691 | 
5 | CN(c1cccc(Cl)c1)c1nc(N)nc(-c2noc(-c3ccccc3Cl)n2)n1 [Example 84, N-(3-Chloro-phenyl)-6-[5-(2-chloro-phenyl)-[1,2,4]oxadiazol-3-yl]-N-methyl-[1,3,5]triazine-2,4-diamine] | 170 | 
6 | COc1cccc(-c2nc(-c3nc(N)nc(N(C)c4cccc(F)c4)n3)no2)c1 [Example 85, N-(3-Fluoro-phenyl)-6-[5-(3-methoxy-phenyl)-[1,2,4]oxadiazol-3-yl]-N-methyl-[1,3,5]triazine-2,4-diamine] | 1270 | 
7 | Cc1ccc(-c2nc(-c3nc(N)nc(N(C)c4cccc(F)c4)n3)no2)o1 [Example 87, N-(3-Fluoro-phenyl)-N-methyl-6-[5-(5-methyl-furan-2-yl)-[1,2,4]oxadiazol-3-yl]-[1,3,5]triazine-2,4-diamine] | 3490 | 
8 | COc1cccc(-c2nc(-c3nc(N)nc(N(C)c4ccccc4F)n3)no2)c1 [Example 88, N-(2-Fluoro-phenyl)-6-[5-(3-methoxy-phenyl)-[1,2,4]oxadiazol-3-yl]-N-methyl-[1,3,5]triazine-2,4-diamine] | 361 | 
9 | COc1ccccc1-c1nc(-c2nc(N)nc(N(C)c3ccccc3F)n2)no1 [Example 89, N-(2-Fluoro-phenyl)-6-[5-(2-methoxy-phenyl)-[1,2,4]oxadiazol-3-yl]-N-methyl-[1,3,5]triazine-2,4-diamine] | 200 | 
10 | CN(c1nc(N)nc(-c2noc(-c3cccs3)n2)n1)c1ccccc1F [Example 90, N-(2-Fluoro-phenyl)-N-methyl-6-(5-thiophen-2-yl-[1,2,4]oxadiazol-3-yl)-[1,3,5]triazine-2,4-diamine] | 415 | 
11 | Cc1ccc(-c2nc(-c3nc(N)nc(N(C)c4ccccc4F)n3)no2)o1 [Example 91, N-(2-Fluoro-phenyl)-N-methyl-6-[5-(5-methyl-furan-2-yl)-[1,2,4]oxadiazol-3-yl]-[1,3,5]triazine-2,4-diamine] | 547 | 
12 | COc1ccccc1-c1nc(-c2nc(N)nc(N(C)c3cccc(C)c3)n2)no1 [Example 92, 6-[5-(2-Methoxy-phenyl)-[1,2,4]oxadiazol-3-yl]-N-methyl-N-m-tolyl-[1,3,5]triazine-2,4-diamine] | 511 | 
13 | Cc1cccc(N(C)c2nc(N)nc(-c3noc(-c4cccs4)n3)n2)c1 [Example 93, N-Methyl-6-(5-thiophen-2-yl-[1,2,4]oxadiazol-3-yl)-N-m-tolyl-[1,3,5]triazine-2,4-diamine] | 931 | 
14 | CCN(c1ccccc1)c1nc(N)nc(-c2noc(-c3cccc(OC)c3)n2)n1 [Example 94, N-Ethyl-6-[5-(3-methoxy-phenyl)-[1,2,4]oxadiazol-3-yl]-N-phenyl-[1,3,5]triazine-2,4-diamine] | 813 | 
15 | CCN(c1ccccc1)c1nc(N)nc(-c2noc(-c3cccs3)n2)n1 [Example 96, N-Ethyl-N-phenyl-6-(5-thiophen-2-yl-[1,2,4]oxadiazol-3-yl)-[1,3,5]triazine-2,4-diamine] | 518 | 
16 | CCN(c1ccccc1)c1nc(N)nc(-c2noc(-c3ccc(C)o3)n2)n1 [Example 97, N-Ethyl-6-[5-(5-methyl-furan-2-yl)-[1,2,4]oxadiazol-3-yl]-N-phenyl-[1,3,5]triazine-2,4-diamine] | 1300 | 
17 | COc1ccccc1-c1nc(-c2nc(N)nc(N(C)c3cccc(F)c3)n2)no1 [Example 98, N-(3-Fluoro-phenyl)-6-[5-(2-methoxy-phenyl)-[1,2,4]oxadiazol-3-yl]-N-methyl-[1,3,5]triazine-2,4-diamine] | 318 | 
18 | CN(c1cccc(F)c1)c1nc(N)nc(-c2noc(-c3cccs3)n2)n1 [Example 99, N-(3-Fluoro-phenyl)-N-methyl-6-(5-thiophen-2-yl-[1,2,4]oxadiazol-3-yl)-[1,3,5]triazine-2,4-diamine] | 1130 | 
19 | CN(c1cccc(Cl)c1)c1nc(N)nc(-c2noc(-c3cccs3)n2)n1 [Example 101, N-(3-Chlorophenyl)-N-methyl-6-(5-thiophen-2-yl-[1,2,4]oxadiazol-3-yl)-[1,3,5]triazine-2,4-diamine] | 206 | 
20 | Cc1ccc(-c2nc(-c3nc(N)nc(N(C)c4cccc(Cl)c4)n3)no2)o1 [Example 102, N-(3-Chloro-phenyl)-N-methyl-6-[5-(5-methyl-furan-2-yl)-[1,2,4]oxadiazol-3-yl]-[1,3,5]triazine-2,4-diamine] | 489 | 

Further lines, results first:

Row | IC50 [1] [nM] | IC50 (no platform marker printed in the cell) [nM] | SMILES
21 | 749 |  | Cc1cccc(N(C)c2nc(N)nc(-c3noc(-c4ccco4)n3)n2)c1F [Example 107, N-(2-Fluoro-3-methyl-phenyl)-6-(5-furan-2-yl-[1,2,4]oxadiazol-3-yl)-N-methyl-[1,3,5]triazine-2,4-diamine]
22 | 369 |  | Nc1nc(Nc2cc(F)ccc2F)nc(-c2noc(-c3ccco3)n2)n1 [Example 109, N-(2,5-Difluoro-phenyl)-6-(5-furan-2-yl-[1,2,4]oxadiazol-3-yl)-[1,3,5]triazine-2,4-diamine]
23 | 606 |  | CN(c1ccccc1)c1nc(N)nc(-c2noc(-c3ccncc3)n2)n1 [Example 114, N-Methyl-N-phenyl-6-(5-pyridin-4-yl-[1,2,4]oxadiazol-3-yl)-[1,3,5]triazine-2,4-diamine]
24 | 1320 |  | CN(c1ccccc1)c1nc(N)nc(-c2noc(-c3cccnc3)n2)n1 [Example 115, N-Methyl-N-phenyl-6-(5-pyridin-3-yl-[1,2,4]oxadiazol-3-yl)-[1,3,5]triazine-2,4-diamine]
25 |  | 1620 | Nc1nc(-c2noc(-c3ccco3)n2)nc(N2CCCc3ccccc32)n1 [Example 116, 4-(3,4-Dihydroquinolin-1-yl)-6-(5-furan-2-yl-[1,2,4]oxadiazol-3-yl)-[1,3,5]triazine-2-amine]
26 | 2240 |  | CN(c1ccccc1)c1nc(N)nc(-c2noc(-c3ccncn3)n2)n1 [Example 120, N-Methyl-N-phenyl-6-(5-pyrimidin-4-yl-[1,2,4]oxadiazol-3-yl)-[1,3,5]triazine-2,4-diamine]
27 | 395 |  | Nc1nc(-c2noc(-c3ccco3)n2)nc(N(CC2CC2)c2ccccc2)n1 [Example 121, N-Cyclopropylmethyl-6-(5-furan-2-yl-[1,2,4]oxadiazol-3-yl)-N-phenyl-[1,3,5]triazine-2,4-diamine]
28 | 644 |  | CN(c1ccccc1)c1nc(N)nc(-c2noc(-c3ccc(F)cc3)n2)n1 [Example 122, 6-[5-(4-Fluoro-phenyl)-[1,2,4]oxadiazol-3-yl]-N-methyl-N-phenyl-[1,3,5]triazine-2,4-diamine]
29 | 929 |  | CN(c1ccccc1)c1nc(N)nc(-c2noc(-c3cccc(F)c3)n2)n1 [Example 123, 6-[5-(3-Fluoro-phenyl)-[1,2,4]oxadiazol-3-yl]-N-methyl-N-phenyl-[1,3,5]triazine-2,4-diamine]
30 | 428 |  | CN(c1ccccc1)c1nc(N)nc(-c2noc(-c3ccccc3F)n2)n1 [Example 124, 6-[5-(2-Fluoro-phenyl)-[1,2,4]oxadiazol-3-yl]-N-methyl-N-phenyl-[1,3,5]triazine-2,4-diamine]
31 | 782 |  | Cc1ccsc1-c1nc(-c2nc(N)nc(N(C)c3ccccc3)n2)no1 [Example 126, N-Methyl-6-[5-(3-methyl-thiophen-2-yl)-[1,2,4]oxadiazol-3-yl]-N-phenyl-[1,3,5]triazine-2,4-diamine]
32 | 2080 |  | CN(c1ccccc1)c1nc(N)nc(-c2noc(-c3cnco3)n2)n1 [Example 127, N-Methyl-6-(5-oxazol-5-yl-[1,2,4]oxadiazol-3-yl)-N-phenyl-[1,3,5]triazine-2,4-diamine]
33 | 1510 |  | CN(c1ccccc1)c1nc(N)nc(-c2noc(-c3ncco3)n2)n1 [Example 128, N-Methyl-6-(5-oxazol-2-yl-[1,2,4]oxadiazol-3-yl)-N-phenyl-[1,3,5]triazine-2,4-diamine]
